Results published in patent US6479435B1, “Diaryl ethers and processes for their preparation and herbicidal and desiccant compositions containing them” (ISK Americas Incorporated, priority 1997, dated 2002).

Tests used:
Assay type in all cases: in vivo
[1] = system: Johnsongrass (Sorghum halepense, SORHA); assay: Pre-emerge greenhouse herbicide test, phytotoxicity rating; details: 14 days after application, rating scale 0-100
Method in brief: (§1)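 Seeds sown in sandy loam mix one day before track-sprayer application of compounds in acetone at 125–1000 g ai/ha (187 l/ha), then surface-watered to incorporate and bottom-watered. Visual rating 14 days after application on a 0–100 scale (0 = no damage, 100 = all plants dead).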

[2] = system: barnyardgrass (Echinochloa crusgalli, ECHCG); assay: as above; details: 14 days after application, rating scale 0-100
Method in brief: as §1

[3] = system: common ragweed (Ambrosia artemisiifolia L., AMBEL); assay: as above; details: 14 days after application, rating scale 0-100
Method in brief: as §1

[4] = system: green foxtail (Setaria viridis, SETVI); assay: as above; details: 14 days after application, rating scale 0-100
Method in brief: as §1

[5] = system: ivyleaf morningglory (Ipomoea hederacea, IPOHE); assay: as above; details: 14 days after application, rating scale 0-100
Method in brief: as §1

[6] = system: lambsquarters (Chenopodium album, CHEAL); assay: as above; details: 14 days after application, rating scale 0-100
Method in brief: as §1

[7] = system: large crabgrass (Digitaria sanguinalis, DIGSA); assay: as above; details: 14 days after application, rating scale 0-100
Method in brief: as §1

[8] = system: redroot pigweed (Amaranthus retroflexus, AMARE); assay: as above; details: 14 days after application, rating scale 0-100
Method in brief: as §1

[9] = system: sicklepod (Cassia obtusifolia, CASOB); assay: as above; details: 14 days after application, rating scale 0-100
Method in brief: as §1

[10] = system: velvetleaf (Abutilon theophrasti, ABUTH); assay: as above; details: 14 days after application, rating scale 0-100
Method in brief: as §1

[11] = system: field corn (Zea mays L., var. Dekalb 535, CORN); assay: Pre-emerge greenhouse test, crop damage rating; details: 14 days after application, rating scale 0-100
Method in brief: as §1

[12] = system: upland rice (Oryza sp., var.Tebonnet, RICE); assay: Pre-emerge greenhouse test, crop damage rating; details: 14 days after application, rating scale 0-100
Method in brief: as §1

[13] = system: soybean (Glycine max L., var. Pella 86, SOY); assay: Pre-emerge greenhouse test, crop damage rating; set-up: key to SOY crop damage rating: 0 = no damage, 100 = complete death of all plants; details: 14 days after application, rating scale 0-100
Method in brief: as §1

[14] = system: common ragweed (Ambrosia artemisiifolia L., AMBEL); assay: Post-emerge greenhouse herbicide test, phytotoxicity rating; details: 14 days after application; for phytotoxicity rating AMBEL: scale 0-100
Method in brief: (§2)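 Compounds in acetone with 0.25% v/v non-ionic surfactant were track-sprayed at 187 l/ha over plants at the 2-3 leaf stage, at 63 to 1000 g ai/ha. Pots were bottom-watered. Injury was scored visually 14 days later on a 0-100 scale, where 0 is no damage and 100 is complete plant death.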

[15] = system: Johnsongrass (Sorghum halepense, SORHA); assay: as above; details: 14 days after application; for phytotoxicity rating SORHA: scale 0-100
Method in brief: as §2

[16] = system: barnyardgrass (Echinochloa crusgalli, ECHCG); assay: as above; details: 14 days after application; for phytotoxicity rating ECHCG: scale 0-100
Method in brief: as §2

[17] = system: green foxtail (Setaria viridis, SETVI); assay: as above; details: 14 days after application; for phytotoxicity rating SETVI: scale 0-100
Method in brief: as §2

[18] = system: ivyleaf morningglory (Ipomoea hederacea, IPOHE); assay: as above; details: 14 days after application; for phytotoxicity rating IPOHE: scale 0-100
Method in brief: as §2

[19] = system: lambsquarters (Chenopodium album, CHEAL); assay: as above; details: 14 days after application; for phytotoxicity rating CHEAL: scale 0-100
Method in brief: as §2

[20] = system: large crabgrass (Digitaria sanguinalis, DIGSA); assay: as above; details: 14 days after application; for phytotoxicity rating DIGSA: scale 0-100
Method in brief: as §2

[21] = system: redroot pigweed (Amaranthus retroflexus, AMARE); assay: as above; details: 14 days after application; for phytotoxicity rating AMARE: scale 0-100
Method in brief: as §2

[22] = system: sicklepod (Cassia obtusifolia, CASOB); assay: as above; details: 14 days after application; for phytotoxicity rating CASOB: scale 0-100
Method in brief: as §2

[23] = system: velvetleaf (Abutilon theophrasti, ABUTH); assay: as above; details: 14 days after application; for phytotoxicity rating ABUTH: scale 0-100
Method in brief: as §2

[24] = system: field corn (Zea mays L., var. Dekalb 535, CORN); assay: Post-emerge greenhouse test, crop damage rating; details: 14 days after application; for crop damage rating CORN: scale 0-100
Method in brief: as §2

[25] = system: upland rice (Oryza sp., var.Tebonnet, RICE); assay: Post-emerge greenhouse test, crop damage rating; details: 14 days after application; for crop damage rating RICE: scale 0-100
Method in brief: as §2

[26] = system: soybean (Glycine max L., var. Pella 86, SOY); assay: Post-emerge greenhouse test, crop damage rating; set-up: key to crop damage rating SOY: 0-100 scale: 0 = no damage, 100 = complete death of all plants; details: 14 days after application; for crop damage rating SOY: scale 0-100
Method in brief: as §2

`O=c1n(-c2cc(Oc3nccc(Cl)n3)c(Cl)cc2F)c(=S)n2n1CCCC2` [Compound 8-31] gave an SORHA phytotoxicity rating ([1]; Rate 125 g al/ha) of 0, an SORHA phytotoxicity rating ([1]; Rate 500 g al/ha) of 20 and an ECHCG phytotoxicity rating ([2]; Rate 125 g al/ha) of 0. It also gave an ECHCG phytotoxicity rating ([2]; Rate 500 g al/ha) of 20, an AMBEL phytotoxicity rating ([3]; Rate 125 g al/ha) of 30 and an AMBEL phytotoxicity rating ([3]; Rate 500 g al/ha) of 0. The SETVI phytotoxicity rating ([4]; Rate 125 g al/ha) was 0, the SETVI phytotoxicity rating ([4]; Rate 500 g al/ha) was 90 and the IPOHE phytotoxicity rating ([5]; Rate 125 g al/ha) was 0. For the same compound, the IPOHE phytotoxicity rating ([5]; Rate 500 g al/ha) was 70, the CHEAL phytotoxicity rating ([6]; Rate 125 g al/ha) was 90 and the CHEAL phytotoxicity rating ([6]; Rate 500 g al/ha) was 100. It also gave a DIGSA phytotoxicity rating ([7]; Rate 125 g al/ha) of 0, a DIGSA phytotoxicity rating ([7]; Rate 500 g al/ha) of 70 and an AMARE phytotoxicity rating ([8]; Rate 125 g al/ha) of 100. It also gave an AMARE phytotoxicity rating ([8]; Rate 500 g al/ha) of 100, a CASOB phytotoxicity rating ([9]; Rate 125 g al/ha) of 30 and a CASOB phytotoxicity rating ([9]; Rate 500 g al/ha) of 90. The ABUTH phytotoxicity rating ([10]; Rate 125 g al/ha) was 100, the ABUTH phytotoxicity rating ([10]; Rate 500 g al/ha) was 100 and the “CORN crop damage rating” value ([11]; Rate 125 g al/ha) was 0. For the same compound, the “CORN crop damage rating” value ([11]; Rate 500 g al/ha) was 0, the “RICE crop damage rating” value ([12]; Rate 125 g al/ha) was 0 and the “RICE crop damage rating” value ([12]; Rate 500 g al/ha) was 10. The “SOY crop damage rating” value ([13]; Rate 125 g al/ha) was 40, the “SOY crop damage rating” value ([13]; Rate 500 g al/ha) was 0 and the “phytotoxicity rating AMBEL” value ([14]; rate 63 g ai/ha) was 50. For the same compound, the “phytotoxicity rating AMBEL” value ([14]; rate 500 g ai/ha) was 95, the “phytotoxicity rating SORHA” value ([15]; rate 63 g ai/ha) was 0 and the “phytotoxicity rating SORHA” value ([15]; rate 500 g ai/ha) was 30. For the same compound, the “phytotoxicity rating ECHCG” value ([16]; rate 63 g ai/ha) was 0, the “phytotoxicity rating ECHCG” value ([16]; rate 500 g ai/ha) was 20 and the “phytotoxicity rating SETVI” value ([17]; rate 63 g ai/ha) was 10. For the same compound, the “phytotoxicity rating SETVI” value ([17]; rate 500 g ai/ha) was 40, the “phytotoxicity rating IPOHE” value ([18]; rate 63 g ai/ha) was 80 and the “phytotoxicity rating IPOHE” value ([18]; rate 500 g ai/ha) was 80. The “phytotoxicity rating CHEAL” value ([19]; rate 63 g ai/ha) was 90, the “phytotoxicity rating CHEAL” value ([19]; rate 500 g ai/ha) was 95 and the “phytotoxicity rating DIGSA” value ([20]; rate 63 g ai/ha) was 0. The “phytotoxicity rating DIGSA” value ([20]; rate 500 g ai/ha) was 50, the “phytotoxicity rating AMARE” value ([21]; rate 63 g ai/ha) was 70 and the “phytotoxicity rating AMARE” value ([21]; rate 500 g ai/ha) was 100. The “phytotoxicity rating CASOB” value ([22]; rate 63 g ai/ha) was 0, the “phytotoxicity rating CASOB” value ([22]; rate 500 g ai/ha) was 80 and the “phytotoxicity rating ABUTH” value ([23]; rate 63 g ai/ha) was 70. For the same compound, the “phytotoxicity rating ABUTH” value ([23]; rate 500 g ai/ha) was 100, the “crop damage rating CORN” value ([24]; rate 63 g ai/ha) was 5 and the “crop damage rating CORN” value ([24]; rate 500 g ai/ha) was 10. The “crop damage rating RICE” value ([25]; rate 63 g ai/ha) was 0, the “crop damage rating RICE” value ([25]; rate 500 g ai/ha) was 5 and the “crop damage rating SOY” value ([26]; rate 63 g ai/ha) was 70. For the same compound, the “crop damage rating SOY” value ([26]; rate 500 g ai/ha) was 70.
For `CN1CC(=O)N(c2cc(Oc3ncccn3)c(Cl)cc2F)C1=O` [Compound 8-3], the “phytotoxicity rating SORHA” value ([1]; 125 g ai/ha) was 0, the “phytotoxicity rating SORHA” value ([1]; 500 g ai/ha) was 40 and the “phytotoxicity rating ECHCG” value ([2]; 125 g ai/ha) was 0. The “phytotoxicity rating ECHCG” value ([2]; 500 g ai/ha) was 10, the “phytotoxicity rating AMBEL” value ([3]; 125 g ai/ha) was 20 and the “phytotoxicity rating AMBEL” value ([3]; 500 g ai/ha) was 60. The “phytotoxicity rating SETVI” value ([4]; 125 g ai/ha) was 0, the “phytotoxicity rating SETVI” value ([4]; 500 g ai/ha) was 70 and the “phytotoxicity rating IPOHE” value ([5]; 125 g ai/ha) was 10. The “phytotoxicity rating IPOHE” value ([5]; 500 g ai/ha) was 60, the “phytotoxicity rating CHEAL” value ([6]; 125 g ai/ha) was 80 and the “phytotoxicity rating CHEAL” value ([6]; 500 g ai/ha) was 100. For the same compound, the “phytotoxicity rating DIGSA” value ([7]; 125 g ai/ha) was 0, the “phytotoxicity rating DIGSA” value ([7]; 500 g ai/ha) was 90 and the “phytotoxicity rating AMARE” value ([8]; 125 g ai/ha) was 10. The “phytotoxicity rating AMARE” value ([8]; 500 g ai/ha) was 100, the “phytotoxicity rating CASOB” value ([9]; 125 g ai/ha) was 0 and the “phytotoxicity rating CASOB” value ([9]; 500 g ai/ha) was 0. The “phytotoxicity rating ABUTH” value ([10]; 125 g ai/ha) was 20, the “phytotoxicity rating ABUTH” value ([10]; 500 g ai/ha) was 70 and the “crop damage rating CORN” value ([11]; 125 g ai/ha) was 0. For the same compound, the “crop damage rating CORN” value ([11]; 500 g ai/ha) was 5, the “crop damage rating RICE” value ([12]; 125 g ai/ha) was 0 and the “crop damage rating RICE” value ([12]; 500 g ai/ha) was 30. The “crop damage rating SOY” value ([13]; 125 g ai/ha) was 0, the “crop damage rating SOY” value ([13]; 500 g ai/ha) was 10 and the “AMBEL phytotoxicity rating (0-100)” value ([14]; 63 g al/ha) was 20. The “AMBEL phytotoxicity rating (0-100)” value ([14]; 500 g al/ha) was 60, the “SORHA phytotoxicity rating (0-100)” value ([15]; 63 g al/ha) was 0 and the “SORHA phytotoxicity rating (0-100)” value ([15]; 500 g al/ha) was 0. For the same compound, the “ECHCG phytotoxicity rating (0-100)” value ([16]; 63 g al/ha) was 0, the “ECHCG phytotoxicity rating (0-100)” value ([16]; 500 g al/ha) was 0 and the “SETVI phytotoxicity rating (0-100)” value ([17]; 63 g al/ha) was 0. The “SETVI phytotoxicity rating (0-100)” value ([17]; 500 g al/ha) was 0, the “IPOHE phytotoxicity rating (0-100)” value ([18]; 63 g al/ha) was 60 and the “IPOHE phytotoxicity rating (0-100)” value ([18]; 500 g al/ha) was 90. The “CHEAL phytotoxicity rating (0-100)” value ([19]; 63 g al/ha) was 50, the “CHEAL phytotoxicity rating (0-100)” value ([19]; 500 g al/ha) was 85 and the “DIGSA phytotoxicity rating (0-100)” value ([20]; 63 g al/ha) was 0. The “DIGSA phytotoxicity rating (0-100)” value ([20]; 500 g al/ha) was 0, the “AMARE phytotoxicity rating (0-100)” value ([21]; 63 g al/ha) was 20 and the “AMARE phytotoxicity rating (0-100)” value ([21]; 500 g al/ha) was 75. The “CASOB phytotoxicity rating (0-100)” value ([22]; 63 g al/ha) was 0, the “CASOB phytotoxicity rating (0-100)” value ([22]; 500 g al/ha) was 0 and the “ABUTH phytotoxicity rating (0-100)” value ([23]; 63 g al/ha) was 10. For the same compound, the “ABUTH phytotoxicity rating (0-100)” value ([23]; 500 g al/ha) was 75, the “CORN crop damage rating (0-100)” value ([24]; 63 g al/ha) was 0 and the “CORN crop damage rating (0-100)” value ([24]; 500 g al/ha) was 0. The “RICE crop damage rating (0-100)” value ([25]; 63 g al/ha) was 0, the “RICE crop damage rating (0-100)” value ([25]; 500 g al/ha) was 0 and the “SOY crop damage rating (0-100)” value ([26]; 63 g al/ha) was 10. The “SOY crop damage rating (0-100)” value ([26]; 500 g al/ha) was 50.
